Test results from the NIST ThermoML archive (doi:10.1021/je049656o).

Test: mn = molality of the nth substance listed, in mol/kg
Settings: 298.15 K, 101.33 kPa, Liquid

O=c1cc[nH]c(=O)[nH]1 [2,4(1H,3H)-pyrimidinedione] + CO
Settings	molar enthalpy of solution [kcal/mol]
m1 = 0.000848	3.57
m1 = 0.000858	3.6
m1 = 0.00105	3.34
m1 = 0.00109	3.34
m1 = 0.001223	3.27
m1 = 0.001317	3.27

O=c1[nH]cc(C(F)(F)F)c(=O)[nH]1 [5-(trifluoromethyl)uracil] + CO
Settings	molar enthalpy of solution [kcal/mol]
m1 = 0.000648	3.83
m1 = 0.000687	3.95
m1 = 0.000724	3.75
m1 = 0.00076	3.6
m1 = 0.000813	3.59
m1 = 0.000845	3.78

O=c1[nH]cc(Br)c(=O)[nH]1 [5-bromouracil] + CO
Settings	molar enthalpy of solution [kcal/mol]
m1 = 0.000472	3.53
m1 = 0.000548	3.35
m1 = 0.000563	3.73
m1 = 0.00102	3.59
m1 = 0.001023	3.61
m1 = 0.00125	3.48

Oc1ncc(Cl)c(O)n1 [5-chloro-2,4-pyrimidinedione] + CO
Settings	molar enthalpy of solution [kcal/mol]
m1 = 0.000652	2.12
m1 = 0.000899	2.3
m1 = 0.000901	2.29
m1 = 0.000954	2.23
m1 = 0.000982	2.11
m1 = 0.001245	2.12

O=c1[nH]cc(F)c(=O)[nH]1 [5-fluoro-2,4(1H,3H)-pyrimidinedione] + CO
Settings	molar enthalpy of solution [kcal/mol]
m1 = 0.000844	3.46
m1 = 0.000963	3.44
m1 = 0.001039	3.41
m1 = 0.00126	3.43
m1 = 0.001578	3.42
m1 = 0.001848	3.47

O=c1[nH]cc(I)c(=O)[nH]1 [5-iodouracil] + CO
Settings	molar enthalpy of solution [kcal/mol]
m1 = 0.000481	4.37
m1 = 0.000487	4.35
m1 = 0.000551	4.22
m1 = 0.000618	4.37
m1 = 0.000626	4.31
m1 = 0.000769	4.2

O=c1cc(Cl)[nH]c(=O)[nH]1 [6-chlorouracil] + CO
Settings	molar enthalpy of solution [kcal/mol]
m1 = 0.000624	4.02
m1 = 0.000862	4.06
m1 = 0.000948	4.13
m1 = 0.001116	4.04
m1 = 0.001609	4.28
m1 = 0.00168	4.15
